The target in one test is T1, human A3-adenosine receptor (Homo sapiens, UniProt P0DMS8).
T1 sequence (P0DMS8 1-318): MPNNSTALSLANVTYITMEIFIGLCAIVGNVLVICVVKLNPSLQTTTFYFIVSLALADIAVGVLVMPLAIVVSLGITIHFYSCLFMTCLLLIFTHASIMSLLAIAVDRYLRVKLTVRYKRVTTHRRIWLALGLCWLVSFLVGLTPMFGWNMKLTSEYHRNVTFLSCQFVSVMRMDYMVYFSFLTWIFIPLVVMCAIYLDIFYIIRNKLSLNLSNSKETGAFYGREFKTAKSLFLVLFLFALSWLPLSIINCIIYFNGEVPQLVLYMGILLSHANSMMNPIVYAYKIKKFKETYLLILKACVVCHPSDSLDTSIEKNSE
The experiment in a line: A3 receptor binding, determined in analogy to Salvatore et al. Particulars: KiA3 (human) Rezeptorbindungswerte, Tabelle 3. From the text: Tabelle 3 enthält KiA3 (human) Rezeptorbindungswerte.
For `CCCn1c(=O)c2[nH]c(C)nc2n2nc(-c3ccco3)nc12` [Beispiel 36, 2-(2-Furanyl)-7-methyl-4-n-propyl-imi-dazo[4.5-e]-s-triazolo[1.5-a]pyrimidin-5-on], the Ki was determined as 2.2 nM.

`CCn1c(=O)c2[nH]c(C)nc2n2nc(CCc3ccccc3)nc12` [Beispiel 10, 4-Ethyl-7-methyl-2-(2-phenylethyl)-imi-dazo[4.5-e]-s-triazolo[1.5-a]pyrimidin-5-on] yielded a Ki of 7.2 nM.

On to `CCCn1c(=O)c2[nH]c(C)nc2n2nc(Cc3ccccc3)nc12` [Beispiel 8, 2-Benzyl-7-methyl-4-n-propyl-imidazo[4.5-e]-s-triazolo[1.5-a]pyrimidin-5-on], for which the Ki worked out at 0.9 nM.

Take `CCCc1nc2c([nH]1)c(=O)n(CCC)c1nc(C3CCCC3)nn21` [Beispiel 2, 2-Cyclopentyl-4,7-di-n-propyl-imidazo[4.5-e]-s-triazolo[1.5-a]pyrimidin-5-on]: the Ki was 5.6 nM.

Consider `CCCc1nc2c([nH]1)c(=O)n(CCC)c1nc(-c3ccco3)nn21` [Beispiel 37, 2-(2-Furanyl)-4,7-di-n-propyl-imidazo[4.5-e]-s-triazolo[1.5-a]pyrimidin-5-on], for which the Ki was found to be 8.3 nM.

A further test has as its target T2, human A1 adenosine Receptor (Homo sapiens, UniProt P30542).
T2 sequence (P30542 1-326): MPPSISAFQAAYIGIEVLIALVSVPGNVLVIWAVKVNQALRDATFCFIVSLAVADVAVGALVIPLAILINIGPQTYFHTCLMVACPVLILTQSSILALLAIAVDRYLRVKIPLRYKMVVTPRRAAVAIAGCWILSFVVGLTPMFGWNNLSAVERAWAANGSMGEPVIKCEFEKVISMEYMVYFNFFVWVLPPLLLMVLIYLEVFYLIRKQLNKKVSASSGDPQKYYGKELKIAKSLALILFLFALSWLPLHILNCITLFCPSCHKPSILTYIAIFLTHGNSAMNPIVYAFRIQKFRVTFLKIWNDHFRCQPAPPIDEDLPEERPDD
The experiment in a line: A1 receptor binding, determined in analogy to Ensinger et al. Particulars: KiA1 (human) Rezeptorbindungswerte, Tabelle 2; read-out: KjA1. From the text:
Die nachfolgende Tabelle enthält KiA1 (human) Rezeptorbindungswerte.
Consider `CCn1c(=O)c2[nH]c(C3CCCC3)nc2n2nc(Cn3cccc3)nc12` [Beispiel 35, 7-Cyclopentyl-4-ethyl-2-(N-pyrrolylmethyl)-imidazo[4.5-e]-s-triazolo[1.5-a]pyrimidin-5-on], for which the Ki was 2.6 nM.

`CCn1c(=O)c2[nH]c(C(C)(C)C)nc2n2nc(Cc3ccc(O)cc3)nc12` [Beispiel 12, 7-t-Butyl-4-ethyl-2-(4-hydroxybenzyl)-imi-dazo[4.5-e]-s-triazolo[1.5-a]pyrimidin-5-on]: the Ki turned out to be 6 nM.

As to `CCn1c(=O)c2[nH]c(C(C)(C)C)nc2n2nc(Cc3ccc(OC)cc3)nc12` [Beispiel 15, 7-t-Butyl-4-ethyl-2-(4-methoxybenzyl)-imi-dazo[4.5-e]-s-triazolo[1.5-a]pyrimidin-5-on], the Ki was 2.1 nM.

As for `CCCc1nc2c([nH]1)c(=O)n(CC)c1nc(CCc3ccccc3)nn21` [Beispiel 11, 4-Ethyl-2-(2-phenylethyl)-7-n-propyl-imi-dazo[4.5-e]-s-triazolo[1.5-a]pyrimidin-5-on], the Ki was 8.1 nM.

With `CCn1c(=O)c2[nH]c(C3CCCC3)nc2n2nc(COc3ccccc3)nc12` [Beispiel 29, 7-Cyclopentyl-4-ethyl-2-phenyloxymethyl-imidazo[4.5-e]-s-triazolo[1.5-a]pyrimidin-5-on], the Ki came to 3.6 nM.

Values taken from EP1087973B1, “IMIDAZOTRIAZOLOPYRIMIDINES USED AS A DRUG HAVING AN ADENOSINE ANTAGONIST ACTIVITY” (Boehringer Ingelheim Pharma KG, priority 1998, dated 1999).
